Like-named read-outs stand apart in the source and are kept apart here. A value given as a limit tells only on which side of the number the result lay.

For one assay, the system named is IKZF1 ZNF2 Q1F. Kind of assay: In vitro ubiquitination screen of Ikaros MBP-ZNF2 Q1 mutants. It is filed as biochemical, human. The settings on record: western blot. The source says:
Structural studies reveal that position 1 of the G-motif is in close proximity to the compound when substrates are bound to cereblon/compound complexes (not shown). Alignment of the G-motif degron sequences of the IKZF family (FIG. 8) and predicted degrons within other C2H2 zinc fingers (FIG. 9) reveal a diverse set of amino acids at this position. Therefore, to identify additional compound:degron pairs, mutations were made in the Q1 position of IKZF1 ZNF2, and potential compounds were screened for activity against these mutants. Plasmids were built containing Ikaros MBP-ZNF2 (aa 141-196) with alternate amino acids at the Q1 position, and an in vitro ubiquitination screen was conducted using various compounds including Compound B (FIG. 10A).

The target in assay [1] is T1, CD19 CARs tagged with IKZF1 ZNF2_ZNF3 Q1F (Homo sapiens, UniProt Q13422, Q146F).
T1 construct: EC50 (Q1F degron); other: Jurkat cells, 18 hours, CAR levels normalized to no drug; Ymin (Q1F degron); Ymin (%); minimum percent protein remaining; Nluc reporter
T1 sequence (Q13422 whole entry Q146F): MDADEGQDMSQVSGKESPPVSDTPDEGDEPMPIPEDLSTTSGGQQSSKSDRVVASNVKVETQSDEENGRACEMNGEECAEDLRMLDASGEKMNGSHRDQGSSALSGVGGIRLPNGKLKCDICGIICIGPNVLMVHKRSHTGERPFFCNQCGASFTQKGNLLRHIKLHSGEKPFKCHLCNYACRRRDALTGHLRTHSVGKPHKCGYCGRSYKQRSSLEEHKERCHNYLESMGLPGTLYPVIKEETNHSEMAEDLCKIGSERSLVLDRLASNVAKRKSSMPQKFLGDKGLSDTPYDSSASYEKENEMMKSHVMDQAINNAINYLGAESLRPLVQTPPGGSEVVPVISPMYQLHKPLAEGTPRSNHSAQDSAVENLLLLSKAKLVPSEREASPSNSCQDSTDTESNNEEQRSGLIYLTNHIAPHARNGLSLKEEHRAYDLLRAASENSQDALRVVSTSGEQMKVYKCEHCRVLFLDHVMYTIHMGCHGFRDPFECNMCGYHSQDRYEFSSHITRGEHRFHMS
Nature of the assay: Small-molecule screen: Q1F degron-tagged CD19 CAR levels in Jurkat cells, flow cytometry. It is filed as cell-based. The conditions noted are these: for Ymin (%): minimum percent protein remaining. As for the experimental part:
A set of potential degron-targeting compounds was screened against the Q1F degron, resulting in a set of potent degron/small-molecule pairs. Lentiviral vectors containing CD19 CARs tagged with IKZF1 ZNF2_ZNF3 Q1F Nluc were transduced into Jurkat cells. The CD19 CAR was similar to the CD19 CAR in Example 2, but comprising the ZNF2_ZNF3 Q1F degron (SEQ ID NO: 19). Transduced cells were treated with a titration of each small molecule or no drug and then incubated at 37° C. for 18 hours. Cells were washed and stained with appropriate staining reagent to measure CAR levels. The cells were incubated at 4° C. in the staining reagents for 20 mins and then washed 3 times before being read on the flow cytometer. CAR levels were normalized to cells that had not been treated with drug. EC50 and Ymin values were calculated using the resulting titration curve. This identified small molecules that potently degraded the Q1F degron-tagged CARs (Table 1).
(In flow cytometry, cells or beads pass a laser one at a time.)

In assay [2] the test system is IKZF1 ZNF2_3 Q1F tagged CD19 CAR. Kind of assay: Jurkat reporter assay (tdTomato), signaling of Q1F-tagged CAR after degradation. Type of assay: cell-based, human. The settings on record: 1 mM pre-treatment 12 hours, co-culture with CD19-expressing K562 8 hours. As for the experimental part: A lentiviral vector encoding ZNF2_3 Q1F or Q1F/G6N tagged CD19 CAR was transduced into the reporter cell line. […] Levels of tdTomato in the form of the overall percent of positive cells (FIG. 12A), as well as mean fluorescence intensity (MFI, FIG. 12B) were assessed by flow cytometry. Degradation of CARs containing the ZNF2_3 Q1F degron decreased signaling by around 30% using 1 mM Compound C and by around 75% using Compound B; this relative difference correlates with the depth of degradation seen for each. Further, the reduction in activity depends upon having an intact G-motif, as the G6N mutation prevents inhibition.

In a further assay the target is T2, ePL-tagged Aiolos (Homo sapiens, UniProt Q96SW2+Q9UKT9).
T2 construct: expressed in transfected cells
T2 sequence (Q9UKT9 whole entry): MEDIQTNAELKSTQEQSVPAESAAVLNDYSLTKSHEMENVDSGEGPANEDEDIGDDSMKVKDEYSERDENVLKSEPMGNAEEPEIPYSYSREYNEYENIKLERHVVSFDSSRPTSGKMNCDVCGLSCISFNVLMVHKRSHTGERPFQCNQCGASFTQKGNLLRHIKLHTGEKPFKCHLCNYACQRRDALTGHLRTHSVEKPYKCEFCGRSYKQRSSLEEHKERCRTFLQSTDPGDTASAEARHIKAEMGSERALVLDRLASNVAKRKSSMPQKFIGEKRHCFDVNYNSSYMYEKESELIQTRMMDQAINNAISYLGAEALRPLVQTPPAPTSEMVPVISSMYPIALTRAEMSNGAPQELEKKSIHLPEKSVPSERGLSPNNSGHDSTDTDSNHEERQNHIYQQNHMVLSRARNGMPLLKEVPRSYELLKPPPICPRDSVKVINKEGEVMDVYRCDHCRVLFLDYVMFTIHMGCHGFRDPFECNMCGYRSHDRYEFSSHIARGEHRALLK
T2 sequence (Q96SW2 whole entry): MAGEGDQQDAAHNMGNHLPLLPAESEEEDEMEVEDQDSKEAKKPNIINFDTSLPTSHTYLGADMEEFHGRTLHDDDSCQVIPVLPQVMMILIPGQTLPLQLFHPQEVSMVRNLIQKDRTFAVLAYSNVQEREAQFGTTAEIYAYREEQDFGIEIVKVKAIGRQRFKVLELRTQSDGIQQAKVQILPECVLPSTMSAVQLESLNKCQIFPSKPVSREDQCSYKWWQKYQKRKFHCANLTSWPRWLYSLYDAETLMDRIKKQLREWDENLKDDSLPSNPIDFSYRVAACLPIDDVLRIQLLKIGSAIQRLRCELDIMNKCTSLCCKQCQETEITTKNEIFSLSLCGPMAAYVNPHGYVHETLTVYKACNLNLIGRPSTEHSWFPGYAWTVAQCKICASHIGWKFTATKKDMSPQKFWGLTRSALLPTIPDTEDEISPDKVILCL
T2 sequence (Q16531 whole entry partner): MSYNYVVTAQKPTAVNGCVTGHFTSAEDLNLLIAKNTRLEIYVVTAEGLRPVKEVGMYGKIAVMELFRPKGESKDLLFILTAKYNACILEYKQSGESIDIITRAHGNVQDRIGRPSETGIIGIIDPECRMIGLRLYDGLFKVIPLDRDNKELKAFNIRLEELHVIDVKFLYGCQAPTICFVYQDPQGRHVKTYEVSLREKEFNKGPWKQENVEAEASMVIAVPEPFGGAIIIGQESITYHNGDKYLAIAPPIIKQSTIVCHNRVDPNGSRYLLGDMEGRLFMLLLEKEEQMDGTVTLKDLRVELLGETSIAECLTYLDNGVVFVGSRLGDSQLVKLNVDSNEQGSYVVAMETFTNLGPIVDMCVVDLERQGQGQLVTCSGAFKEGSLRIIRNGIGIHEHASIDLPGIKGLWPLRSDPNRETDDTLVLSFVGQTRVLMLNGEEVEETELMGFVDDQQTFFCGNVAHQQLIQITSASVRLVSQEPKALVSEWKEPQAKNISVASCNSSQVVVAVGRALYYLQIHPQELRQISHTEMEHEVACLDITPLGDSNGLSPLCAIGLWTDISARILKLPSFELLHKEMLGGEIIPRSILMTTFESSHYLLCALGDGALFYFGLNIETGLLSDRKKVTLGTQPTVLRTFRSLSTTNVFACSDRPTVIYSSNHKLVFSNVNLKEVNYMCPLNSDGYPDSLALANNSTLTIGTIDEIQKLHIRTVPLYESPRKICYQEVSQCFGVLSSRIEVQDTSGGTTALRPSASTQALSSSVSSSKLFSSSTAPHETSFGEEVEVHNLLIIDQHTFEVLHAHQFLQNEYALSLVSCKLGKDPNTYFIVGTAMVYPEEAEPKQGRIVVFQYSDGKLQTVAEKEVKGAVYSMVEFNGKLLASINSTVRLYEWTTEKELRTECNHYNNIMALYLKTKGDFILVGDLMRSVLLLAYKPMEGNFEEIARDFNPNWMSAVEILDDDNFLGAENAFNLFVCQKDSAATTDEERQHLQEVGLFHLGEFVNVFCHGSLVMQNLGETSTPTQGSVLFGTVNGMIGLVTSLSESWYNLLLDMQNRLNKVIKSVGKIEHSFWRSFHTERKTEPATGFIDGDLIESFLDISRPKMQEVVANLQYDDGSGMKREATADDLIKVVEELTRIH
Nature of the assay: ePL-tagged substrate degradation in DF15 multiple myeloma cells. The conditions noted are these: for DC50: Aiolos, DF15 cells, 4 hours, read-out: EC50 (the source's name). It is filed as cell-based. On the procedure:
(§1) DF15 multiple myeloma cells stably expressing ePL-tagged Aiolos, Ikaros, or GSPT1, and MDS-L cells stably expressing ePL-tagged CK1a were generated via lentiviral infection with pLOC-ePL-Aiolos (or Ikaros, GSPT1, or CK1a). […] Compounds were dispensed by an acoustic dispenser (ATS acoustic transfer system from EDC Biosystems) into a 384-well plate in a 10-point dose response curve using 3-fold dilutions starting at 10 μM and going down to […]. Then, 25 μL of media (RPMI-1640+10% heat inactivated FBS+25 mM Hepes+1 mM Na pyruvate+1× NEAA+1×Pen Strep Glutamine) containing 5000 of DF15 or MSD-L cells was dispensed per well. Assay plates were incubated at 37° C. with 5% CO2 for 4 hours except 20 hours for GSPT1. After incubation, 25 μL of the InCELL Hunter detection reagent working solution (DiscoverX, catalogue no. 96-0002, Fremont, Calif.) was added to each well and incubated at room temperature for 60 min protected from light. After 60 min, luminescence was read on an Envision or PHERAstar luminescence reader.
(§2) All substrate degradation curves were processed and evaluated using ActivityBase (IDBS), a data analysis software package. Ymin is minimum percent protein remaining.

The target of a further assay is T3, ePL-tagged GSPT1 (Homo sapiens, UniProt P15170+Q96SW2).
T3 construct: expressed in transfected cells
T3 sequence (P15170 whole entry): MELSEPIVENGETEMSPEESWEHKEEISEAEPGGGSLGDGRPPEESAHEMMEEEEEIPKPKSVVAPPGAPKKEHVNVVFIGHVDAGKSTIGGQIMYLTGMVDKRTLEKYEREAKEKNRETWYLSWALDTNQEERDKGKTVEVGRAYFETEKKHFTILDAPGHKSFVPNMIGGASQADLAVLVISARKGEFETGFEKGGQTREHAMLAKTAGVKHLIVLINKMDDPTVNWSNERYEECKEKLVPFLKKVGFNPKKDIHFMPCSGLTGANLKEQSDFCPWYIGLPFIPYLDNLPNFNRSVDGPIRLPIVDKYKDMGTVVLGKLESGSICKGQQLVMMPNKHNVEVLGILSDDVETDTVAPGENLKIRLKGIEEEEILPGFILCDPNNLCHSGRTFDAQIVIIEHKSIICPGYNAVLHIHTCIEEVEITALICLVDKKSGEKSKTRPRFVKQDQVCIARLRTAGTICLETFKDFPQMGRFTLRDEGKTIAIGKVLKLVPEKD
T3 sequence (Q96SW2 whole entry): as the sequence (Q96SW2 whole entry) above
T3 sequence (Q16531 whole entry partner): as the sequence (Q16531 whole entry partner) above
Described as above. It is filed as cell-based. The conditions noted are these: for DC50: GSPT1, DF15 cells, 20 hours, read-out: EC50 (the source's name). On the procedure:
as §1
(§3) To determine the EC50 value of a compound for the degradation of a given substrate (concentration of compound that achieves half the maximum degradation observed), a four-parameter logistic model (sigmoidal dose—response model) (FIT=(A+{(B−A)/1+[(C/x)D]})) where C is the inflection point (EC50), D is the […], and A and B are the low and high limits of the fit, respectively) was used. All substrate degradation curves were processed and evaluated using ActivityBase (IDBS), a data analysis software package. Ymin is minimum percent protein remaining.

The next assay concerns the target T4, ePL-tagged Ikaros (Homo sapiens, UniProt Q13422+Q96SW2).
T4 construct: expressed in transfected cells
The description is as above. The conditions noted are these: for DC50: Ikaros, DF15 cells, 4 hours, read-out: EC50 (the source's name). Type of assay: cell-based. On the procedure:
as §1, §3

Another assay deals with T5, ePL-tagged CK1a (Homo sapiens, UniProt P48729+Q96SW2).
T5 construct: expressed in transfected cells
T5 sequence (P48729 whole entry): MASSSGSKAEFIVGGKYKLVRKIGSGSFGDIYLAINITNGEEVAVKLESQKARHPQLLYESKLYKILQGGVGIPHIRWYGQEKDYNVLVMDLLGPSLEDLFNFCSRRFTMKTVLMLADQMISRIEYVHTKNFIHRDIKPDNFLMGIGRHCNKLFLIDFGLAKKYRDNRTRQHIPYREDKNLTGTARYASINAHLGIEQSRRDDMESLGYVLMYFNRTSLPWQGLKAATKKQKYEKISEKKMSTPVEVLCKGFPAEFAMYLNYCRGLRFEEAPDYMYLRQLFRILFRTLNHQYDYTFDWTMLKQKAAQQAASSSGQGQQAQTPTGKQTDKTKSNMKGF
T5 sequence (Q96SW2 whole entry): as the sequence (Q96SW2 whole entry) above
T5 sequence (Q16531 whole entry partner): as the sequence (Q16531 whole entry partner) above
Kind of assay: ePL-tagged substrate degradation in MDS-L cells. It is filed as cell-based. The conditions noted are these: for DC50: CK1a, MDS-L cells, 4 hours, read-out: EC50 (the source's name). On the procedure:
as §1, §3

A further assay deals with T6, Helios (Homo sapiens, UniProt Q96SW2+Q9UKS7).
T6 construct: endogenous in cells; host or cells: Jurkat/Helios/HiBit cells (CRISPR/Cas9 knock-in)
T6 sequence (Q9UKS7 whole entry): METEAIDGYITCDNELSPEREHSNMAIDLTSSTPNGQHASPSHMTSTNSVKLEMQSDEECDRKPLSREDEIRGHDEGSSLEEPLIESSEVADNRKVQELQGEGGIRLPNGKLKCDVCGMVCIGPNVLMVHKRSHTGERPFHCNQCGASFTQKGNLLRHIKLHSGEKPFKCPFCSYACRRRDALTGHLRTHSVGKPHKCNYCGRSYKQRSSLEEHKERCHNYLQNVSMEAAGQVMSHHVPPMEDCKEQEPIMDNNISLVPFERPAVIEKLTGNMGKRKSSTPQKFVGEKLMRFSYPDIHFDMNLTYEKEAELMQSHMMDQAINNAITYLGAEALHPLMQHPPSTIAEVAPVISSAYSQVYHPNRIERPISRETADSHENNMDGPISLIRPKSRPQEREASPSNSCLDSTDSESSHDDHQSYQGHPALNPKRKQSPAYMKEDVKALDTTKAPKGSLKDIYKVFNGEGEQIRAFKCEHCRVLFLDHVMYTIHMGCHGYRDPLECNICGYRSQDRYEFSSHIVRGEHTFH
T6 sequence (Q96SW2 whole entry): as the sequence (Q96SW2 whole entry) above
T6 sequence (Q16531 whole entry partner): as the sequence (Q16531 whole entry partner) above
Nature of the assay: Helios HiBit degradation in Jurkat cells. Type of assay: cell-based. The conditions noted are these: for DC50: Helios, Jurkat/Helios/HiBit cells, 18 hr, read-out: EC50 (the source's name). On the procedure: For Helios, a stable Jurkat cell line was engineered using CRISPR/Cas9 to insert an in-frame HiBit tag into the carboxy-terminal reading frame of the IKZF2 gene. Test compounds were transferred to 1536 well plates using an acoustic dispenser, and Jurkat/Helios/HiBit cells in DMEM/10% FCS were plated at 10,000 cells/well in a final volume of 5 ul. Cells were incubated at 37C, 95% RH for 18 hr. Luciferase activity was measured by adding 2 ul/well of Nano-Glo reagent (Promega), incubating at RT for 30 min, and reading luminescence on a microtiter plate reader.
as §2
(In general: The HiBiT peptide binds its large partner to form an active luciferase.)

For assay [3], the system named is ZNF2_3 Q1F tagged CD19 CAR. Kind of assay: In vivo degradation of degron-tagged CAR in non-tumor bearing NSG mice. As for the experimental part: (§4) The ability to degrade ZNF2_3 Q1F tagged CAR in vivo was evaluated. A lentiviral vector encoding ZNF2_3 Q1F tagged CD19 CAR was transduced into activated primary T cells. Transduced cells were expanded for 10 days in media supplemented with IL2, IL7 and IL15, then frozen.
To determine the ability to degrade degron-tagged CAR in vivo in the absence of tumor, CAR T cells were thawed, rested for 24 hours and adoptively transferred into non-tumor bearing female NSG™ immunodeficient mice at a dose of 2×10^6 cells per animal. After 24 hours, mice were dosed orally with vehicle, 0.85 or 8.5 mg/kg Compound D (FIG. 18B). Blood was drawn 8, 24, 48 and 72 hours later (FIG. 18A), and the proportion of CAR+ T cells, as determined by staining with anti-scFv and anti-CD3 antibodies, was evaluated by flow.

The test system of assay [4] is ZNF2_3 Q1F tagged CD19 CAR. Nature of the assay: Raji xenograft model, degron-tagged CAR T down-regulation in NSG mice. Type of assay: in vivo. The settings on record: 6.85 mg/kg BID orally on days 0 and 1, Raji tumor. On the procedure:
as §4
To examine the down-regulation of degron-tagged CAR in vivo in a xenograft cancer model and the impact on CAR T function, female NSG™ mice were injected with 5×10^5 of Raji tumor cells stably expressing renilla luciferase. Six days later CAR T cells were thawed, rested for 24 hours and adoptively transferred into the mice at a dose of 2×10^6 cells per animal. Mice were dosed orally with vehicle or 6.85 mg/kg Compound D BID on days 0 and 1 (FIG. 19A). Blood was drawn and tumor fluorescence measured at D1, D3, and D10 (FIG. 19A), and the proportion of CAR+T cells, as determined by staining with anti-scFv and anti-CD3 antibodies, was evaluated by flow.

Assay [5] deals with CD19 CARs tagged with IKZF1 ZNF2_ZNF3 Q1F. Kind of assay: Small-molecule screen: Q1F degron-tagged CD19 CAR levels in Jurkat cells, flow cytometry. Type of assay: cell-based, human. The conditions noted are these: versus Helios, Aiolos, Ikaros, GSPT1, CK1a.
Setting [6] is: Degron Q1F (from Table 1), read-out: EC50 (the source's name).
The mark [7] stands for this setting: Jurkat assay described in Example 5, read-out: EC50 for the Q1F degron.
Where [8] appears, read: Jurkat cells, 18 hours, CAR levels normalized to no drug.
[9] abbreviates: Jurkat cells, 18 hours, CAR levels normalized to no drug, read-out: EC50 (Q1F degron).

T4 sequence (Q13422 whole entry): as the sequence (Q13422 whole entry Q146F) above, with F146Q counted along it
T4 sequence (Q96SW2 whole entry): as the sequence (Q96SW2 whole entry) above
T4 sequence (Q16531 whole entry partner): as the sequence (Q16531 whole entry partner) above

As for `O=C1CCC(N2Cc3cc(C(=O)N4Cc5cccnc5C4)ccc3C2=O)C(=O)N1` (stereo not shown) [Compound B, 3-(5-(6,7-dihydro-5H-pyrrolo[3,4-b]pyridine-6-carbonyl)-1-oxoisoindolin-2-yl)piperidine-2,6-dione], the “ubiquitination of IKZF1 ZNF2 Q1F” value in the assay with IKZF1 ZNF2 Q1F is given as “heavily ubiquitinated”. In addition, the “Ymin (%)” value came to 1.7% in assay [1] (Degron Q1F (from Table 1)); 93% at ePL-tagged Aiolos; 72% on ePL-tagged GSPT1; 91% at ePL-tagged Ikaros; 82% on ePL-tagged CK1a; 65% on Helios. The DC50 in assay [1] (setting [6]) is 4.8 nM; in [1] (setting [7]) it was under 5 nM; in assay [1] (setting [9]), 4.8 nM; at ePL-tagged Aiolos, over 10 µM; at ePL-tagged GSPT1 it was 54 nM; at ePL-tagged Ikaros it was over 10 µM. Also, the DC50 on ePL-tagged CK1a is over 10 µM; at Helios it was over 10000 nM. Moreover, the “Ymin (Q1F degron)” value in assay [1] (setting [8]) stood at 1.7%. In addition, the “decrease of signaling (tdTomato reporter)” value in [2] is “around 75%”. Besides, the “degradation of GSPT1 (in words)” value at ePL-tagged GSPT1 is reported as “some degradation activity against GSPT1”. Moreover, on Helios, the “degradation of Helios (in words)” value is given as “some degradation activity against Helios”.

In the case of `O=C1CCC(N2Cc3cc(C4CCN(Cc5ccc6ncsc6c5)CC4)ccc3C2=O)C(=O)N1` (stereo not shown) [Compound D, 3-[5-[1-(1,3-benzothiazol-6-ylmethyl)-4-piperidyl]-1-oxo-isoindolin-2-yl]piperidine-2,6-dione], the “Ymin (%)” value in assay [1] (Degron Q1F (from Table 1)) turned out to be 4.2%; on ePL-tagged Aiolos it was 87%; at ePL-tagged GSPT1, 96%; at ePL-tagged Ikaros it was 93%; on ePL-tagged CK1a, 81%; on Helios, 24%. The DC50 in assay [1] (setting [6]) is 0.7 nM; in assay [1] (setting [7]), under 1 nM; in assay [1] (setting [9]) it was 0.7 nM; at ePL-tagged Aiolos, over 10 µM; at ePL-tagged GSPT1 it was over 10000 nM; on ePL-tagged Ikaros, over 10 µM. The DC50 at ePL-tagged CK1a is over 10 µM; on Helios, 460 nM. Further, the “Ymin (Q1F degron)” value in [1] (setting [8]) was 4.2%. Besides, the “CD3+ CAR+ cells remaining” value in assay [3] (0.85 or 8.5 mg/kg orally (both doses), blood at 8 hours) was under 5%. Besides, in assay [3] (0.85 or 8.5 mg/kg orally, 24 hours), the “CAR level in vivo” value was “remained significantly degraded”. Also, the “CAR expression in vivo” value in assay [3] (48 hours after dosing) is “substantially restored”. Moreover, the “expansion and cytolytic function of degron-tagged CAR T cells” value in assay [4] is “decreased expansion and cytolytic function”. Also, on Helios, the “degradation of Helios (in words)” value is given as “some degradation of Helios”. The “selectivity for the Q1F degron (in words)” value in [5] is “selective for the Q1F degron”.

Values taken from patent publication US20230095912A1, “Composition and Methods for Selective Degradation of Engineered Proteins” (Celgene Corporation, priority 2021, published 2023).
